Structures are written as SMILES.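 Protocol summary: plate cells (96-well), add compound at 5 concentrations, incubate 48 h, interpolate endpoints linearly. GI50 is the concentration that inhibits growth by half.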 Calls of active or inactive are those of the source. Rule as the data show it: active = GI50 up to about 1.1 µM and inactive = higher.

From ChEMBL document CHEMBL1201862, “PubChem BioAssay data set” (2004) come the findings set out here.

Among the test systems are LXFL 529; DMS-114; SNB-78; DMS-273; KM-20L2; HOP-18; DLD-1; XF498; RXF 631.
What all share (experiment): NCI anticancer screen, dose series, 48 h

Regarding `CC(C)(C)C1C=C(Sc2ccccc2)C(=O)O1` (stereo unspecified), the GI50 in the experiment with LXFL 529 was 34.8 µM (inactive); in the experiment on DMS-114, 32.8 µM (inactive); in the experiment with SNB-78, 63 µM (inactive); in the experiment on DMS-273, 40.7 µM (inactive); in the experiment with KM-20L2, 39.1 µM (inactive); in the experiment on HOP-18 it was 75.9 µM (inactive). In the experiment with DLD-1, the GI50 was 42.5 µM (inactive).

With `CC(=O)OC12COC1CC(O)C1(C)C(=O)C(O)C3=C(C)C(O)CC(O)(C(OC(=O)c4ccccc4)C21)C3(C)C` (stereo unspecified), the GI50 was 6.97 µM (inactive) with DMS-114; > 100 µM (inactive) with SNB-78; 2.36 µM (inactive) with XF498; 0.731 µM (active) in the experiment with DMS-273; 1.41 µM (inactive) in the experiment on KM-20L2.

Turning to `O=C1C=C(c2c(O)ccc3ccccc23)c2ccccc2C1=O`, the GI50 in the experiment on LXFL 529 was 1.59 µM (inactive); in the experiment with DMS-114, 2.04 µM (inactive); with SNB-78, 2.26 µM (inactive); with DMS-273 it was 3.46 µM (inactive); in the experiment with KM-20L2, 15.4 µM (inactive); with RXF 631, 6.56 µM (inactive). Besides, the GI50 in the experiment on HOP-18 is 8.81 µM (inactive); with DLD-1 it was 3.76 µM (inactive).

`COc1ccc(N2C(=O)/C(=C(\C)c3cc4ccccc4oc3=O)N=C2c2cc([N+](=O)[O-])ccc2Cl)cc1`: the GI50 is 29.9 µM (inactive) in the experiment on LXFL 529; 24.2 µM (inactive) in the experiment on DMS-114; 24.4 µM (inactive) in the experiment with SNB-78; 29.7 µM (inactive) in the experiment on KM-20L2; 36.6 µM (inactive) with RXF 631; 85.1 µM (inactive) with HOP-18. Also, the GI50 with DLD-1 is 54.7 µM (inactive).

Take `CCOC(=O)C1=C(O)C(=O)c2ccccc2C1=O`: the GI50 with DMS-114, in the experiment with SNB-78, in the experiment on XF498, in the experiment on DMS-273, with HOP-18 and in the experiment on DLD-1 was > 100 µM (inactive) throughout.

As for `Cc1c(C)c2ccc(OC(C)C(=O)O)cc2oc1=O` (stereo unspecified), the GI50 with LXFL 529 is > 100 µM (inactive); in the experiment with DMS-114 it was > 100 µM (inactive); in the experiment on SNB-78, > 100 µM (inactive); in the experiment on XF498, 35 µM (inactive); with KM-20L2, > 100 µM (inactive); with RXF 631 it was > 100 µM (inactive). Further, the GI50 with HOP-18 and with DLD-1 was > 100 µM (inactive) each time.

Regarding `O=C1C(c2ccccc2)=C(c2ccccc2)C(c2ccccc2)/C1=C1\C(=O)C(c2ccccc2)=C(c2ccccc2)C1c1ccccc1` (stereo unspecified), the GI50 in the experiment with LXFL 529, in the experiment on DMS-114, in the experiment with SNB-78, in the experiment on DMS-273, with KM-20L2 and with HOP-18 was > 100 µM (inactive) in each case. In the experiment with DLD-1, the GI50 is > 100 µM (inactive).

On to `COc1cccc2c1C(=O)c1c(O)c3c(c(O)c1C2=O)C[C@@](O)(C(=O)CN1CCOCC1)C[C@@H]3OC1CC(N)C(O)C(C)O1` (stereo partly specified), for which the GI50 is 3.52 µM (inactive) in the experiment on DMS-114; 2.45 µM (inactive) in the experiment on XF498; 2.23 µM (inactive) in the experiment on DMS-273; 9.77 µM (inactive) with KM-20L2; 0.000832 µM (active) in the experiment with HOP-18; 7.71 µM (inactive) in the experiment on DLD-1.

Take `COc1ccc(/N=N/C(C(=O)c2ccccc2)C(=O)c2ccccc2)cc1`: the GI50 in the experiment with LXFL 529 was 24.8 µM (inactive); in the experiment on DMS-114 it was 19.4 µM (inactive); with XF498, 18.2 µM (inactive); with DMS-273, 16.1 µM (inactive); in the experiment with KM-20L2, 27.2 µM (inactive); with RXF 631, 31.4 µM (inactive). For the same compound, the GI50 in the experiment with DLD-1 is 23.9 µM (inactive).

Turning to `C/C=C/C(=O)[C@@H](O)C(C)C`, the GI50 with LXFL 529, in the experiment with SNB-78, with DMS-273 and with KM-20L2 was > 100 µM (inactive) throughout.

In the case of `COC(=O)/C(=N\Nc1nnc(C)n1N)C(C#N)c1ccccc1` (stereo unspecified), the GI50 with LXFL 529 was 64.9 µM (inactive); with DMS-114, 21.5 µM (inactive); in the experiment with SNB-78 it was > 100 µM (inactive); with XF498, > 100 µM (inactive); with DMS-273, > 100 µM (inactive); in the experiment with KM-20L2 it was > 100 µM (inactive). Moreover, the figures for the GI50 in the experiment with RXF 631, in the experiment on HOP-18 and in the experiment on DLD-1 were 83.6 µM (inactive), 7.05 µM (inactive) and 31.1 µM (inactive), respectively.

In the case of `O=C1C2=C(C3=NCCc4c[nH]c1c43)c1c(cc(Br)c(O)c1Br)CCN2`, the GI50 was 2.96 µM (inactive) in the experiment on DMS-114; 5.64 µM (inactive) in the experiment on SNB-78; 13.9 µM (inactive) with XF498; 12.6 µM (inactive) in the experiment on DMS-273; 5.07 µM (inactive) in the experiment with KM-20L2; 20 µM (inactive) in the experiment with HOP-18. For the same compound, in the experiment with DLD-1, the GI50 was 8.2 µM (inactive).

As for `O=C1C=CC(=O)C12CCc1ccccc12`, the GI50 in the experiment with LXFL 529, with DMS-114, in the experiment with SNB-78, in the experiment on XF498, in the experiment with DMS-273 and in the experiment on KM-20L2 was > 100 µM (inactive) in each case. In addition, the GI50 was > 100 µM (inactive) in the experiment with RXF 631, > 33.2 µM (inactive) in the experiment with HOP-18 and > 63.8 µM (inactive) with DLD-1.

For the compound `Clc1ccc(-c2c(C3=NCCCN3)nnn2-c2ccccc2)cc1`, the GI50 with LXFL 529 was > 100 µM (inactive); with DMS-114, 47.2 µM (inactive); in the experiment with SNB-78 it was > 100 µM (inactive); with XF498, > 100 µM (inactive); in the experiment on DMS-273, > 100 µM (inactive); in the experiment with KM-20L2, 33.9 µM (inactive). Moreover, the GI50 in the experiment with RXF 631 is 75.3 µM (inactive); with HOP-18, > 100 µM (inactive); with DLD-1, 75 µM (inactive).

For `CC(=O)Nc1ccc(SC#N)c2c(NC(C)=O)cccc12`, the GI50 was 28 µM (inactive) with LXFL 529; 43.1 µM (inactive) with DMS-114; 99.3 µM (inactive) with SNB-78; > 100 µM (inactive) in the experiment on DMS-273; > 100 µM (inactive) in the experiment with KM-20L2; > 82.8 µM (inactive) with RXF 631. The values for the GI50 in the experiment with HOP-18 and in the experiment on DLD-1 were 45.2 µM (inactive) and 71.6 µM (inactive), respectively.

With `C[C@]12CCC(=O)C(O)=C1CCC2=O`, the GI50 in the experiment on LXFL 529, in the experiment with SNB-78, in the experiment on DMS-273, in the experiment on KM-20L2, in the experiment with HOP-18 and with DLD-1 was > 100 µM (inactive) in each case.

Turning to `CC(=O)OCCOCNC(=S)N/N=C/c1ccc([N+](=O)[O-])s1`, the GI50 in the experiment with LXFL 529 was 73.3 µM (inactive); in the experiment with DMS-114 it was 7.85 µM (inactive); in the experiment with SNB-78 it was > 100 µM (inactive); with XF498, > 100 µM (inactive); with DMS-273, 28.1 µM (inactive); in the experiment with KM-20L2 it was 32.4 µM (inactive). The GI50 with HOP-18 was > 100 µM (inactive); with DLD-1, 31.1 µM (inactive).

In the case of `CCOC(=O)C1(Br)S(=O)(=O)OCCOS1(=O)=O`, the GI50 in the experiment with DMS-114, in the experiment on SNB-78, with XF498, with DMS-273, in the experiment with KM-20L2 and in the experiment on DLD-1 was > 100 µM (inactive) throughout.

With `O=C(O)C12CC3CC(CC(F)(C3)C1)C2`, the GI50 with LXFL 529 is > 100 µM (inactive); in the experiment with DMS-114 it was > 100 µM (inactive); with SNB-78 it was 32.2 µM (inactive); in the experiment with XF498 it was > 100 µM (inactive); in the experiment on DMS-273, > 100 µM (inactive); in the experiment on KM-20L2 it was > 100 µM (inactive). For the same compound, the GI50 in the experiment on DLD-1 was > 100 µM (inactive).

For the compound `CCOC(=N)CC(=O)Nc1cccc(C)c1C`, the GI50 in the experiment with LXFL 529 is > 100 µM (inactive); in the experiment on SNB-78, 40.3 µM (inactive); in the experiment on XF498, > 100 µM (inactive); in the experiment with DMS-273, > 100 µM (inactive); in the experiment on KM-20L2 it was > 100 µM (inactive); in the experiment with RXF 631, > 100 µM (inactive). Besides, the GI50 in the experiment on DLD-1 was > 100 µM (inactive).

Turning to `Cc1cccc(C)c1N1C(=O)C(=O)C(c2nc3ccccc3s2)/C(=N/NC(=O)c2ccccc2O)C1=O` (stereo unspecified), the GI50 with LXFL 529 is 10.2 µM (inactive); in the experiment with DMS-114, 11.6 µM (inactive); in the experiment on SNB-78, 5.45 µM (inactive); in the experiment with XF498, 12.4 µM (inactive); in the experiment with DMS-273, 4.74 µM (inactive); with KM-20L2, 32.6 µM (inactive). For the same compound, the GI50 was 24.5 µM (inactive) in the experiment with RXF 631, 21.7 µM (inactive) in the experiment on HOP-18 and 22.8 µM (inactive) in the experiment with DLD-1.

For the compound `C=C1C(=O)[C@@]23CC[C@H]4[C@@](C)(CCC[C@@]4(C)C(=O)OC)[C@@H]2CC[C@]1(O)C3`, the GI50 in the experiment on XF498 was 1.75 µM (inactive); with DMS-273 it was 1.67 µM (inactive); in the experiment on HOP-18, 2.07 µM (inactive); in the experiment on DLD-1, 0.32 µM (active).

`CC1CCCC2(O1)OC1CC(=O)OC1C1=C2C(=O)c2ccccc2C1=O` (stereo unspecified): the GI50 in the experiment with LXFL 529 was 1.4 µM (inactive); in the experiment on DMS-114, 1.75 µM (inactive); in the experiment on SNB-78, 2.05 µM (inactive); in the experiment with XF498, 2.72 µM (inactive); in the experiment with DMS-273 it was 1.8 µM (inactive); in the experiment on KM-20L2, 3.98 µM (inactive).

As for `CCCCCCCCCCCCCCCC(=O)N[C@H]1CCc2cc(OC)c(OC)c(OC)c2-c2ccc(SC)c(=O)cc21`, the GI50 was 0.486 µM (active) in the experiment with LXFL 529; 0.492 µM (active) with SNB-78; 0.769 µM (active) with XF498; 0.186 µM (active) in the experiment on KM-20L2; 0.933 µM (active) in the experiment with HOP-18; 0.365 µM (active) with DLD-1.
